Test results published in PubChem BioAssay (NCI).
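A five-concentration, 48-hour dose response in 96-well plates underlies each endpoint, interpolated linearly between surrounding concentrations. At the TGI there is no net growth.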

Tests used:
Assay in all cases: DTP human tumour cell line panel, 48 h
HOP-62 NSCLC = system: HOP-62 NSCLC
PC-3 prostate = system: PC-3 prostate
HT29 colon = system: HT29 colon
RXF 393 renal = system: RXF 393 renal
MALME-3M melanoma = system: MALME-3M melanoma
KM12 colon = system: KM12 colon
SK-OV-3 ovarian = system: SK-OV-3 ovarian
NCI-H460 lung = system: NCI-H460 lung
UACC-257 melanoma = system: UACC-257 melanoma
UACC-62 melanoma = system: UACC-62 melanoma
NCI-H522 lung = system: NCI-H522 lung
SNB-75 CNS = system: SNB-75 CNS
ACHN renal = system: ACHN renal
OVCAR-4 ovarian = system: OVCAR-4 ovarian
A549 NSCLC = system: A549 NSCLC
MOLT-4 leukemia = system: MOLT-4 leukemia
OVCAR-3 ovarian = system: OVCAR-3 ovarian
SF-295 CNS = system: SF-295 CNS

Structure (SMILES)	TGI (HOP-62 NSCLC) [µM]	TGI (PC-3 prostate) [µM]	TGI (HT29 colon) [µM]	TGI (RXF 393 renal) [µM]	TGI (MALME-3M melanoma) [µM]	TGI (KM12 colon) [µM]	TGI (SK-OV-3 ovarian) [µM]	TGI (NCI-H460 lung) [µM]	TGI (UACC-257 melanoma) [µM]	TGI (UACC-62 melanoma) [µM]	TGI (NCI-H522 lung) [µM]	TGI (SNB-75 CNS) [µM]	TGI (ACHN renal) [µM]	TGI (OVCAR-4 ovarian) [µM]	TGI (A549 NSCLC) [µM]	TGI (MOLT-4 leukemia) [µM]	TGI (OVCAR-3 ovarian) [µM]	TGI (SF-295 CNS) [µM]
CCSc1cc2c(cc1O)CC[C@@H]1[C@@H]2CC[C@]2(C)[C@@H](O)CC[C@@H]12	30.6	18.9	23	39.2	23.8	21.9	39.2	19.2	30.2	27.7	19.5	29.6	24.9	38.7	15.5	21.2		
CCC1CCN=C(NS(=O)(=O)c2cc(C)c(Cl)cc2S)N1 (stereo unspecified)	> 100	> 100	88.9	> 100	92.9		> 100	> 100	> 100	54.3	76.9	> 100	> 100	> 100	> 100	71.6		
O=C(/C=C/c1ccc(C(F)(F)F)cc1)c1c([O-])on[n+]1-c1ccccc1	13	9.2	2.25	2.68	> 100	7.1	> 63.4	6.44	6.93	2.81		5.87	2.94	48.9	12.3	2.04	3.37	20.2
CCOC(=O)C1C(C)C2(C#N)C(=N)OC1(C)C2(C#N)C#N (stereo unspecified)		> 100	> 100	92.7	> 100	> 100	> 100		> 100	> 100	> 100	> 100	> 100		> 100			> 100
CC(C)CC(=O)NC(C(=O)NC(C(=O)NC(CC(C)C)C(O)CC(=O)NC(C)C(=O)NC(CC(C)C)C(O)CC(=O)O)C(C)C)C(C)C (stereo unspecified)	> 100	> 100	> 100		> 100	> 100	> 100	> 100	> 100	> 100	> 100	> 100	> 100	> 100	> 100	> 100	> 100	> 100
Cc1ccc(C(=O)Cn2c(C(=O)/C=C/c3cccs3)nc3ccccc32)cc1	> 100	> 100	> 100	> 100	> 100	> 100	> 100	> 100	> 100	> 100		> 100	> 100	> 100	> 100		> 100	
COc1ccc(OC)c(C2CCc3c(cnc4nc(N)nc(N)c34)C2)c1 (stereo unspecified)	26.8	27.5	16.2	32.1	20.9	26.4	31.2	21.6	23.4	12.3	21.7		17.2	23.5	15	22	31.3	23.3
CN(C)CCNC(=O)c1cccc2c(NC(CS)C(=O)O)c3ccccc3[n+](C)c12 (stereo unspecified)	> 100	> 100	> 100		> 100	> 100	> 100	> 100	> 100	> 100		> 100	> 100	> 100	> 100	> 100	> 100	> 100
CC1(C)CC(=O)C2=C(C1)NC1=C(C2)C(=O)CC(C)(C)C1	> 100	> 100	> 100	> 100	> 100	> 100	> 100	> 100	> 100	> 100		> 100	> 100	> 100	> 100	> 100	> 100	> 100
Clc1ccc(C(Cc2cccc(Cl)c2)c2c(Cl)nc(N3CCNCC3)nc2Cl)cc1 (stereo unspecified)	28.9	30.6	> 100		26.4	26.8	27.1	30.9	37.6	36.7	28	26.7	28.8	31.3	29.5	24.6	29.2	31
C[Si](C)(N[Si](C)(C)OCCc1ccccc1)OCCc1ccccc1	> 100	> 100	> 100	> 100		> 100	> 100	> 100	> 100	> 100		> 100	> 100	> 100			> 100	> 100
COc1ccc(-c2cc(-c3ccc(O)cc3O)c(C#N)c(=O)[nH]2)cc1	41.1	35.4	34.6	35.4	70.4	> 100	33.8	59.7	70.8	36.2			> 100	60	62	55.1	48.6	34
N#Cc1ccc(CSC2=C(c3ccc(Cl)cc3)S/C(=C3\SC(SCc4ccc(C#N)cc4)=C(c4ccc(Cl)cc4)S3)S2)cc1	> 100	> 100	> 100	> 100	> 100	> 100	> 100	> 100	> 100	> 100	> 100		> 100	> 100	> 100	> 100	> 100	> 100
O=C(OCc1ccc([N+](=O)[O-])cc1)N1c2ccccc2[C@@]23O[C@]24CCC[C@H]3C#C/C=C\C#C[C@H]14		> 100	> 100	> 100	> 100	> 100	> 100	> 100	> 100	> 100	> 100		> 100	> 100	> 100	> 100	> 100	> 100
O=c1[nH]nc(Cc2ccccc2)n1CCCl	> 100	> 100	> 100	> 100	> 100	> 100	> 100	> 100		> 100		> 100		> 100		> 100	> 100	> 100
COc1ccc2nc3c([N+](=O)[O-])ccc(NCCCN(C)C)c3c(NCCCN(C)C)c2c1	3.07	2.24	2.56	2.02	> 10	2.54	4.14		> 10	> 10		3.49		2.29	3.43	1.26		3.01
O=C(O)c1nc2ccc(C(F)(F)F)cc2nc1NCc1ccc(Cl)c(Cl)c1	32.2	29.4	28.5			33.8	38.5	30.8	54.3	32.5		39.1	30.5	51.4	29.7	34.2	24.6	37.2
COC(=O)C1=COC(OC2OC(CO)C(O)C(O)C2O)C2C3CN4CCc5c([nH]c6ccccc56)C4(CC12)O3 (stereo unspecified)	> 100	> 100	> 100	> 100	> 100	> 100	> 100	> 100	> 100	> 100		> 100	> 100	> 100	> 100	> 100	> 100	> 100
CC(=O)OCC1OC(n2c3c(cc(C#N)c2=S)CCC3)C(OC(C)=O)C(OC(C)=O)C1OC(C)=O (stereo unspecified)	> 100	> 100	> 100	> 100	> 100	> 100		> 100	> 100	> 100	> 100	> 100	> 100	> 100	> 100	> 100		> 100
CN(C)CCCNc1ncnc2c1ncn2C1OC(CO)C(O)C1O (stereo unspecified)	> 100	> 100	> 100	> 100	> 100	> 100	> 100	> 100	> 100	> 100	> 100		> 100	> 100	> 100	> 100	> 100	> 100
CCOC(=O)C1(N)CCc2[nH][nH]c(=O)c2C1 (stereo unspecified)	> 100	> 100	> 100		> 100	> 100	> 100	> 100	> 100	> 100	> 100	> 100	> 100	> 100	> 100	> 100	> 100	> 100
CC1CC/C(=C\c2ccc(N(C)C)cc2)C2=C1C(c1ccc(N(C)C)cc1)NC(=S)N2 (stereo unspecified)		> 100	> 100	> 100	> 100	> 100	> 100		> 100	> 100		> 100	> 100			> 100	> 100	> 100
